Laboratory results from patent US10231954B2, “Neurodegenerative therapies” (LYTIX BIOPHARMA AS, priority 2014, dated 2019).

Assays:
Assay type in all cases: biochemical
ERK5 = ERK5 (Homo sapiens, UniProt Q13164); assay: Kinase profiling ERK5; details: 100 micromolar inhibitor concentration, 100 is no change; for remaining activity at 100 µM: read-out: residual kinase activity, ERK5
Description: (§1) Any value less that 25 is considered to be highly significant inhibition.

MNK2 = MNK2 (Homo sapiens, UniProt Q9HBH9); assay: Kinase profiling MNK2; details: 100 micromolar inhibitor concentration, 100 is no change; for remaining activity at 100 µM: read-out: residual kinase activity, MNK2
Description: as §1

MAPKAP-K2 = MAPKAP-K2 (Homo sapiens, UniProt P49137); assay: Kinase profiling MAPKAP-K2; details: 100 micromolar inhibitor concentration, 100 is no change; for remaining activity at 100 µM: read-out: residual kinase activity, MAPKAP-K2
Description: as §1

PRAK = target: T1, PRAK (Homo sapiens, UniProt Q8IW41); assay: Kinase profiling PRAK; details: 100 micromolar inhibitor concentration, 100 is no change; for remaining activity at 100 µM: read-out: residual kinase activity, PRAK
T1 sequence (Q8IW41 1-473): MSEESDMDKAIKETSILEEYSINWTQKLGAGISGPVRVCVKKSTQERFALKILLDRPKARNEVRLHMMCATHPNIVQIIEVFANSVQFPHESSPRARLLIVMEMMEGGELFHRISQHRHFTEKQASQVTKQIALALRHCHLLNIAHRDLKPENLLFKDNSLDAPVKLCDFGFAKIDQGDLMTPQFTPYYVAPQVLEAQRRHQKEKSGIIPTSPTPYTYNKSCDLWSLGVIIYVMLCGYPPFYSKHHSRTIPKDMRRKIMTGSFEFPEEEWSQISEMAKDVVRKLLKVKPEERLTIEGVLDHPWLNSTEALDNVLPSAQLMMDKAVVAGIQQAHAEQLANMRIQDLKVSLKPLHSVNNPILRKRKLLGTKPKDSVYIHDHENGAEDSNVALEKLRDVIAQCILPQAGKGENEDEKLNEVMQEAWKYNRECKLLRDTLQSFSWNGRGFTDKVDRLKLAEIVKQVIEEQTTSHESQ
Description: as §1

CDK9-Cyclin T1 = CDK9-Cyclin T1 (Homo sapiens, UniProt P50750); assay: Kinase profiling CDK9-Cyclin T1; details: 100 micromolar inhibitor concentration, 100 is no change; for remaining activity at 100 µM: read-out: residual kinase activity, CDK9-Cyclin T1
Description: as §1

TTBK1 = TTBK1 (Homo sapiens, UniProt Q5TCY1); assay: Kinase profiling TTBK1; details: 100 micromolar inhibitor concentration, 100 is no change; for remaining activity at 100 µM: read-out: residual kinase activity, TTBK1
Description: as §1

IKKb = target: T2, IKKb (Homo sapiens, UniProt O14920); assay: Kinase profiling IKKb; details: 100 micromolar inhibitor concentration, 100 is no change; for remaining activity at 100 µM: read-out: residual kinase activity, IKKb
T2 sequence (O14920 1-756): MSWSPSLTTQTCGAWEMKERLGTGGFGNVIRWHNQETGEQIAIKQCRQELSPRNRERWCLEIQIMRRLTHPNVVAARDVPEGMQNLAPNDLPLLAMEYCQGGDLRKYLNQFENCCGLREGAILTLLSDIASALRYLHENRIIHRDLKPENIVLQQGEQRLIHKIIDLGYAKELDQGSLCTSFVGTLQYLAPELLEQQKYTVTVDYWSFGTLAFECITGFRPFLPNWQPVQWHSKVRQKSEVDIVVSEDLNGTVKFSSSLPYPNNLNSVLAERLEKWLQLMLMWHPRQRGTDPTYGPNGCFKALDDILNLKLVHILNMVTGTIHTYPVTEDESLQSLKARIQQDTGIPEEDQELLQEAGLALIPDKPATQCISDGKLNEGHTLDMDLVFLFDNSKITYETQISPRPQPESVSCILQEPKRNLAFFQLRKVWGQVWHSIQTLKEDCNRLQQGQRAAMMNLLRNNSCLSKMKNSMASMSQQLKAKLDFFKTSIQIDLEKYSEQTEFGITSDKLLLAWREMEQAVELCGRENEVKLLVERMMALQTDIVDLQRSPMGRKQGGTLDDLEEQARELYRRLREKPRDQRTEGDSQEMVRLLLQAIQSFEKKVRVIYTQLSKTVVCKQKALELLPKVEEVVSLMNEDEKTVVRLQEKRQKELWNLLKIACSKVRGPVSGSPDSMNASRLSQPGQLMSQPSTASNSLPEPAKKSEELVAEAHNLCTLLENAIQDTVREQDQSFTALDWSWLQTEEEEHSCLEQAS
Description: as §1

MPSK1 = MPSK1 (Homo sapiens, UniProt O75716); assay: Kinase profiling MPSK1; details: 100 micromolar inhibitor concentration, 100 is no change; for remaining activity at 100 µM: read-out: residual kinase activity, MPSK1
Description: as §1

WNK1 = WNK1 (Homo sapiens, UniProt Q9H4A3); assay: Kinase profiling WNK1; details: 100 micromolar inhibitor concentration, 100 is no change; for remaining activity at 100 µM: read-out: residual kinase activity, WNK1
Description: as §1

ULK1 = target: T3, ULK1 (Homo sapiens, UniProt O75385); assay: Kinase profiling ULK1; details: 100 micromolar inhibitor concentration, 100 is no change; for remaining activity at 100 µM: read-out: residual kinase activity, ULK1
T3 sequence (O75385 1-1050): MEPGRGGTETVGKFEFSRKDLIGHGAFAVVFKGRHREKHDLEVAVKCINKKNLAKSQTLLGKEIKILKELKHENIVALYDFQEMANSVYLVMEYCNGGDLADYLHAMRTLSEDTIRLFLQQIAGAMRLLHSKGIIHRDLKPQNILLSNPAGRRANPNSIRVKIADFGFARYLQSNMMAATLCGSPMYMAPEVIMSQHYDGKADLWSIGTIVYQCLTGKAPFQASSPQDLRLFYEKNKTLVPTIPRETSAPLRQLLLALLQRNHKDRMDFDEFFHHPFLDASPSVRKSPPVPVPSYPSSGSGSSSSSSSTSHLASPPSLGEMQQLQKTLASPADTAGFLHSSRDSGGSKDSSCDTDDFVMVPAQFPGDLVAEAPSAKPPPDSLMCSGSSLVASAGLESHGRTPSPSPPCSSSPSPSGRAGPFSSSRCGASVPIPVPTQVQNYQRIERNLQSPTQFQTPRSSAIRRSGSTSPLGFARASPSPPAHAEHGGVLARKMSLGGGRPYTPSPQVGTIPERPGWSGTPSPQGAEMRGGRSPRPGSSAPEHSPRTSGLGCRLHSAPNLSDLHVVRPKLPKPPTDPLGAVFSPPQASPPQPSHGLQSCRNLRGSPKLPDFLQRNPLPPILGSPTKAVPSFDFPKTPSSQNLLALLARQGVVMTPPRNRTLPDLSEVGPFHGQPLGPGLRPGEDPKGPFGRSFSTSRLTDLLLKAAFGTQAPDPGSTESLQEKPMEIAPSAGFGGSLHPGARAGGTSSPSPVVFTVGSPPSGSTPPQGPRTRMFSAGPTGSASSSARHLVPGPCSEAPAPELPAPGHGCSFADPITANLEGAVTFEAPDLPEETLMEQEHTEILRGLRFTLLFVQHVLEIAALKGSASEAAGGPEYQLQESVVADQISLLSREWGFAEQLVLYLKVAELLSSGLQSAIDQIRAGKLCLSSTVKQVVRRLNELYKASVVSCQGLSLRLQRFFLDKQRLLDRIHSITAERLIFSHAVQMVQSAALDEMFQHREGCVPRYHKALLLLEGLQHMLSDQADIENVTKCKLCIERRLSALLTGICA
Description: as §1

IR = IR (Homo sapiens, UniProt P06213); assay: Kinase profiling IR; details: 100 micromolar inhibitor concentration, 100 is no change; for remaining activity at 100 µM: read-out: residual kinase activity, IR
Description: as §1

IRR = IRR (Homo sapiens, UniProt P14616); assay: Kinase profiling IRR; details: 100 micromolar inhibitor concentration, 100 is no change; for remaining activity at 100 µM: read-out: residual kinase activity, IRR
Description: as §1

PDGFRA = PDGFRA (Homo sapiens, UniProt P16234); assay: Kinase profiling PDGFRA; details: 100 micromolar inhibitor concentration, 100 is no change; for remaining activity at 100 µM: read-out: residual kinase activity, PDGFRA
Description: as §1

WNK1, sequence (Q9H4A3 whole entry, species assumed): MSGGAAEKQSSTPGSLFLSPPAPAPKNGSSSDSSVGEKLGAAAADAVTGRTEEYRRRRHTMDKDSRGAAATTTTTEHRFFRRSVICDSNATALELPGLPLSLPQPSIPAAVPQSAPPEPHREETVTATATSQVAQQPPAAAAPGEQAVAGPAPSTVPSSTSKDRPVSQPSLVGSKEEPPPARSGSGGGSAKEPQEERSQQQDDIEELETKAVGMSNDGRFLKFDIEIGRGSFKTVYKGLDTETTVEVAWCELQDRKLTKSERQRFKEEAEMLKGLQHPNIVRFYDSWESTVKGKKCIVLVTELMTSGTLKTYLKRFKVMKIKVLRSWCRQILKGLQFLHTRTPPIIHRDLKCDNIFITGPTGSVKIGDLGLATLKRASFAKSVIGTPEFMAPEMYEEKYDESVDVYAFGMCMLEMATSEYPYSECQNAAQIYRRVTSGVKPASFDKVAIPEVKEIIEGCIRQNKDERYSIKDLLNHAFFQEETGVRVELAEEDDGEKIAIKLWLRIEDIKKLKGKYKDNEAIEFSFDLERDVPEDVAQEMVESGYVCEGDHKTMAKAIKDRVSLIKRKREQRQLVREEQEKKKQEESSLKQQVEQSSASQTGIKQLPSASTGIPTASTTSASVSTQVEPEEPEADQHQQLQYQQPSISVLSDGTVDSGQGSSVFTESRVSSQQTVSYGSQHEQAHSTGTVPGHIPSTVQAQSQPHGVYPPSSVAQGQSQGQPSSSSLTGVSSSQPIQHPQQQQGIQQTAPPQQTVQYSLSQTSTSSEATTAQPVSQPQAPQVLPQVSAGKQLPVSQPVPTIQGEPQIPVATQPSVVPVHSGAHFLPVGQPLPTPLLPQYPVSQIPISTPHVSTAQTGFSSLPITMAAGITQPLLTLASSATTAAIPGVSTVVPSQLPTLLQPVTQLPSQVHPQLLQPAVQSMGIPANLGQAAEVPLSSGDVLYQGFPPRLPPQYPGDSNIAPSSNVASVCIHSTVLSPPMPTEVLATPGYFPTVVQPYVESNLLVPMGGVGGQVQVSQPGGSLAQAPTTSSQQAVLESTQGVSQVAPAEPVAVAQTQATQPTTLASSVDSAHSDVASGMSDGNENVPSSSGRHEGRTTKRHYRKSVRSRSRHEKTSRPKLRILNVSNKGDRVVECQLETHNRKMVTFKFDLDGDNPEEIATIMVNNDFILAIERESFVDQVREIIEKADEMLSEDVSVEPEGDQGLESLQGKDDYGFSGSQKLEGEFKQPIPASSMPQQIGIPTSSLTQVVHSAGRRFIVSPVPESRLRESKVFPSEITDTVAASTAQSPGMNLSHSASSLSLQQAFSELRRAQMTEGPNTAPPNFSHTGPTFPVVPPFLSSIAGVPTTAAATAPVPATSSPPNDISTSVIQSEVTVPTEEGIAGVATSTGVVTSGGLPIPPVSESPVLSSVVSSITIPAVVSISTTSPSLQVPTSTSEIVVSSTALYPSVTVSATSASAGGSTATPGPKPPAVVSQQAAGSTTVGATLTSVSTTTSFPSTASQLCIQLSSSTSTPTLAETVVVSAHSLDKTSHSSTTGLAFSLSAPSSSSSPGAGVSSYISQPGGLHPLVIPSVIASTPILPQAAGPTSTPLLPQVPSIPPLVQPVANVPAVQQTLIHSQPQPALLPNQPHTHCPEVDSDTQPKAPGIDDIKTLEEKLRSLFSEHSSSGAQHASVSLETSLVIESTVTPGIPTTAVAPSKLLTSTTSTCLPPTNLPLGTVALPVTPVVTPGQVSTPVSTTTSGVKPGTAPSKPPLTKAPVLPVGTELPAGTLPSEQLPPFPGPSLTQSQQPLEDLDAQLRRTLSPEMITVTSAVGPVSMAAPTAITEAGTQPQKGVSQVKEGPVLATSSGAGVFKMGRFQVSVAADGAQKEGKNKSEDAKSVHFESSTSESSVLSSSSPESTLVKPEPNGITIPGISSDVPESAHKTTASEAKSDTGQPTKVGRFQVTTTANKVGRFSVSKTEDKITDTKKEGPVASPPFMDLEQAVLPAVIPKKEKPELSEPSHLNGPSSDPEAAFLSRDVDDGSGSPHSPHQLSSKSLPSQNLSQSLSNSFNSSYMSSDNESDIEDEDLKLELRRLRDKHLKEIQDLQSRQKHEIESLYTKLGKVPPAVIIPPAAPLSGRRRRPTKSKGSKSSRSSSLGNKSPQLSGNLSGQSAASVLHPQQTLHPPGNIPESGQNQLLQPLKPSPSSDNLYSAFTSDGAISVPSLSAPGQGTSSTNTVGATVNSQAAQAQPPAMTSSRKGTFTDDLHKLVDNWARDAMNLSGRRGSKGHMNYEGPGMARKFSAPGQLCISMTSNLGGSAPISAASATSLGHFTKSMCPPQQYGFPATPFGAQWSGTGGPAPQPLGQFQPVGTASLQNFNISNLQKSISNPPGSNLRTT
IR, sequence (P06213 28-1382): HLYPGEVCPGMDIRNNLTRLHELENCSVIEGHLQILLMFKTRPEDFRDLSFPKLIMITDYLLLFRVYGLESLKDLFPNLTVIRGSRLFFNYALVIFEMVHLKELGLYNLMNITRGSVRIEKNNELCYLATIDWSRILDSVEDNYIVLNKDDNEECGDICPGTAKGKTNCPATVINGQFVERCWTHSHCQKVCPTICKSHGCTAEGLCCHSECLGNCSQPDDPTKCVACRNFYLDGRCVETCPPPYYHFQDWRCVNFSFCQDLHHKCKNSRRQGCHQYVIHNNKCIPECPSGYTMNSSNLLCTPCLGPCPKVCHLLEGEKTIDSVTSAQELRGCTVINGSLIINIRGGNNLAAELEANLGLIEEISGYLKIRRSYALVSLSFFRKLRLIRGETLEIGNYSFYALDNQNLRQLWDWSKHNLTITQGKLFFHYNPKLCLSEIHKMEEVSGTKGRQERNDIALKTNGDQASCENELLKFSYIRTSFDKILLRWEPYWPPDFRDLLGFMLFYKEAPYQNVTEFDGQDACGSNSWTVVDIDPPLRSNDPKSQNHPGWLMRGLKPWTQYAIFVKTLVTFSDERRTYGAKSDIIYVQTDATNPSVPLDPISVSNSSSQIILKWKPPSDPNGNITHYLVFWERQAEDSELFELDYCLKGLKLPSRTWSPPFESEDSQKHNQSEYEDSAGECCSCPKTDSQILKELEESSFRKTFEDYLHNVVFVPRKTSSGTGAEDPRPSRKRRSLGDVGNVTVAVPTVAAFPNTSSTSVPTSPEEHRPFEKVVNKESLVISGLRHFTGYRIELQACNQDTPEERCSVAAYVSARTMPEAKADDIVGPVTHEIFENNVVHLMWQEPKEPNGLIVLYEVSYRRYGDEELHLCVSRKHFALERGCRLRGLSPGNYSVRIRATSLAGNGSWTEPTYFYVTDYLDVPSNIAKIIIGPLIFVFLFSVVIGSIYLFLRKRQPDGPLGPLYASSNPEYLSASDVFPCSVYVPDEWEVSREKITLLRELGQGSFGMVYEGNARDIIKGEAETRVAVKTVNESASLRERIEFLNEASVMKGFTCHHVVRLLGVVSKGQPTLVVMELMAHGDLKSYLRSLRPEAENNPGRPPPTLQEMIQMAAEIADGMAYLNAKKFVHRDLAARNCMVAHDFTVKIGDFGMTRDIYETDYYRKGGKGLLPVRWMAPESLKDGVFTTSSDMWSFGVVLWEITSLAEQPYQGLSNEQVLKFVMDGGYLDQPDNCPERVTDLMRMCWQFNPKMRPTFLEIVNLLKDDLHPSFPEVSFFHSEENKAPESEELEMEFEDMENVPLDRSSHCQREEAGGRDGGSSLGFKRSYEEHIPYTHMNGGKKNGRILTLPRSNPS
IRR, sequence (P14616 27-1297, species assumed): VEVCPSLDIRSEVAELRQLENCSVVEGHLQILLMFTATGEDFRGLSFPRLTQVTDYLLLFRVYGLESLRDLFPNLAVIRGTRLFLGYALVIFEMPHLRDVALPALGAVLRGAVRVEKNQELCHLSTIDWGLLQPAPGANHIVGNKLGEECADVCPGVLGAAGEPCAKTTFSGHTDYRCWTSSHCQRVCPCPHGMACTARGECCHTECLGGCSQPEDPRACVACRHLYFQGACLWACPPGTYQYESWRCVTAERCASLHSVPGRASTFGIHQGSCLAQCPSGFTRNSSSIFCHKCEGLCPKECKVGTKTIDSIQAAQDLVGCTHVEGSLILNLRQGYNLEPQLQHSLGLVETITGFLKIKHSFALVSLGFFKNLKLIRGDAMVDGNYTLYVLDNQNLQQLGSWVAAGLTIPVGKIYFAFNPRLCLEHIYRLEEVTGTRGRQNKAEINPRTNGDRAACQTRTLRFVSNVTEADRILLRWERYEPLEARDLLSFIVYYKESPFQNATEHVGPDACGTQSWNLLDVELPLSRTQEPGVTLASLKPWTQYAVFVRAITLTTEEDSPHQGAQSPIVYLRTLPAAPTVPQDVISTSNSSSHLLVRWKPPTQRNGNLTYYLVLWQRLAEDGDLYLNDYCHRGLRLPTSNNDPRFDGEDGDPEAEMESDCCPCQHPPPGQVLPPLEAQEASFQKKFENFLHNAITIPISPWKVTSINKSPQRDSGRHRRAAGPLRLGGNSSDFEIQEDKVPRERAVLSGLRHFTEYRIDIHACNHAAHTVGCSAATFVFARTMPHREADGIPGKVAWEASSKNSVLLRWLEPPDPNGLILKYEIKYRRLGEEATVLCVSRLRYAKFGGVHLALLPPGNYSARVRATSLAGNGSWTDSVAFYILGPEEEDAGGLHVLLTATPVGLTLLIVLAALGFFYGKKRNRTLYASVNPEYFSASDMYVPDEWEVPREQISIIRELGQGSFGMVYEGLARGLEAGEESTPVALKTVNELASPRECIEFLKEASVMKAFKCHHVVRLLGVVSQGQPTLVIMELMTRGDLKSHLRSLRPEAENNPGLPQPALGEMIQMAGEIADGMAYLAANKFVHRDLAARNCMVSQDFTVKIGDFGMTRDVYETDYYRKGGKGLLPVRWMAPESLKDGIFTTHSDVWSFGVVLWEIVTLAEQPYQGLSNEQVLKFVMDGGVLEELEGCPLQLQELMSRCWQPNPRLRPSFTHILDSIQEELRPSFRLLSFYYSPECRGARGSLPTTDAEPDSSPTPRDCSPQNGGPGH

Structure (SMILES)	residual kinase activity, ERK5 (ERK5)	residual kinase activity, MNK2 (MNK2)	residual kinase activity, MAPKAP-K2 (MAPKAP-K2)	residual kinase activity, PRAK (PRAK)	residual kinase activity, CDK9-Cyclin T1 (CDK9-Cyclin T1)	residual kinase activity, TTBK1 (TTBK1)	residual kinase activity, IKKb (IKKb)	residual kinase activity, MPSK1 (MPSK1)	residual kinase activity, WNK1 (WNK1)	residual kinase activity, ULK1 (ULK1)	residual kinase activity, IR (IR)	residual kinase activity, IRR (IRR)	residual kinase activity, PDGFRA (PDGFRA)	further results
O=C(Nc1nc2cc(O)ccc2s1)c1ccncc1 [Compound 03-11]	58	75	82	86	68	99	80	73	88	90	106	86	63	
O=C(Nc1nc2ccc(O)cc2s1)c1ccccn1 [Compound 03-12]	53	66	43	65	76	91	84	90	91	96	27	82	56	
O=C(Nc1nc2cc(O)ccc2s1)c1ccccn1 [Compound 03-13]	51	66	98	90	93	100	88	102	100	78	74	78	43	
COc1ccc2sc(NC(C)=O)nc2c1 [Compound 03-21]														remaining activity at 100 µM (ERK5): 57%; remaining activity at 100 µM (MNK2): 84%; remaining activity at 100 µM (MAPKAP-K2): 108%; remaining activity at 100 µM (PRAK): 71%; remaining activity at 100 µM (CDK9-Cyclin T1): 90%; remaining activity at 100 µM (TTBK1): 93%; remaining activity at 100 µM (IKKb): 98%; remaining activity at 100 µM (MPSK1): 97%; remaining activity at 100 µM (WNK1): 121%; remaining activity at 100 µM (ULK1): 103%; remaining activity at 100 µM (IR): 109%; remaining activity at 100 µM (IRR): 47%; remaining activity at 100 µM (PDGFRA): 87%
CC(=O)Nc1nc2ccccc2s1 [Compound 03-32]	66	91	102	78	45	80	75	86	98	102	87	63	78	
O=C(Nc1nc2cc(O)ccc2s1)c1cccnc1 [Compound 03-33]	58	36	109	83	97	89	81	101	103	88	105	51	61	
O=C(Nc1nc2ccc(O)cc2s1)c1ccccc1 [Compound 03-60]	30	25	59	39	76	46	87	106	108	47	31	31	29	
CC(=O)Nc1nc2cc(C(F)(F)F)ccc2s1 [Compound 03-73]														remaining activity at 100 µM (ERK5): 67%; remaining activity at 100 µM (MNK2): 96%; remaining activity at 100 µM (MAPKAP-K2): 114%; remaining activity at 100 µM (PRAK): 87%; remaining activity at 100 µM (CDK9-Cyclin T1): 97%; remaining activity at 100 µM (TTBK1): 94%; remaining activity at 100 µM (IKKb): 94%; remaining activity at 100 µM (MPSK1): 97%; remaining activity at 100 µM (WNK1): 128%; remaining activity at 100 µM (ULK1): 91%; remaining activity at 100 µM (IR): 102%; remaining activity at 100 µM (IRR): 61%; remaining activity at 100 µM (PDGFRA): 34%
